# Legend:
# FbiA [1] = molecular target: T1, FbiA (Mycolicibacterium smegmatis, UniProt A0QTG2); assay: X-ray crystal structure, crystal soaking; format: binding; conditions: pH 8.5, 20% glycerol
# T1 construct: expressed in M. smegmatis mc^2155 (homologous host); homodimer
# T1 sequence (A0QTG2 1-327): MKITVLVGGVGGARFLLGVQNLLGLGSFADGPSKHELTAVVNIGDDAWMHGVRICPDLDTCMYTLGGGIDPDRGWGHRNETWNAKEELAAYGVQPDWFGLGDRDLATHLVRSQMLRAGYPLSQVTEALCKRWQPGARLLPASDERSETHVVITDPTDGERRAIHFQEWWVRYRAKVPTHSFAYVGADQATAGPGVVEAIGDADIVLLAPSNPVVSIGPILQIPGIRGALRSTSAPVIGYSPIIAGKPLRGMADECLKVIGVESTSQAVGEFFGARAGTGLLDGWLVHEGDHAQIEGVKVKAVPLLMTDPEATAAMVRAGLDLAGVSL
# FbiA [2] = molecular target: T1, FbiA; assay: X-ray crystal structure, crystal soaking; co-purification with LC-MS; format: binding; conditions: pH 8.5, 20% glycerol; no metal seen; active site of Mol. B; carbonyl part poorly resolved
# [3] = molecular target: the molecule itself; assay: SEC-MALS; Superdex S200 Increase 10/300 in 200 mM NaCl, 50 mM Tris pH 7.9; purified FbiA; MALS detection (Wyatt)
molecule,measurement,setting,value
Nc1nc2c(ncn2[C@@H]2O[C@H](COP(=O)(O)OP(=O)(O)O)[C@@H](O)[C@H]2O)c(=O)[nH]1 [GDP],"X-ray crystal structure, crystal soaking","FbiA [1]; GDP alone and with Fo, active-site Ca2+ in Mol. B, in place of unstable EPPG","FbiA plus GDP, 6UW3; FbiA plus GDP plus Fo, 6UW5"
O=c1nc2n(C[C@H](O)[C@H](O)[C@H](O)CO)c3cc(O)ccc3cc-2c(=O)[nH]1 [Fo],"X-ray crystal structure, crystal soaking","FbiA [1]; Fo alone (no metal seen) and with GDP and Ca2+, active site of Mol. B","FbiA plus Fo, 6UW1; FbiA plus GDP, 6UW3; FbiA plus GDP plus Fo, 6UW5"
C=C(OP(=O)(O)OC[C@@H](O)[C@@H](O)[C@@H](O)Cn1c2nc(=O)[nH]c(=O)c-2cc2ccc(O)cc21)C(=O)O [DH-F420-0],"X-ray crystal structure, crystal soaking; co-purification with LC-MS",FbiA [2],"FbiA plus DH-F420-0, 6UW7"
"FbiA from M. smegmatis (enzyme, FbiA (phosphotransferase that makes dehydro-F420-0; homologous to CofD) from Mycobacterium smegmatis, gene MSMEG_1830; Copurifies with its product DH-F420-0 and some mature F420 (small molecules); also called MSMEG_1830; Mol. A; source: M. smegmatis mc2155, pMyNT vector, acetamide-induced, purified (Ni2+ agarose, SEC, TEV cleavage); not shown: His6, N-terminal, cleaved) MKITVLVGGVGGARFLLGVQNLLGLGSFADGPSKHELTAVVNIGDDAWMHGVRICPDLDTCMYTLGGGIDPDRGWGHRNETWNAKEELAAYGVQPDWFGLGDRDLATHLVRSQMLRAGYPLSQVTEALCKRWQPGARLLPASDERSETHVVITDPTDGERRAIHFQEWWVRYRAKVPTHSFAYVGADQATAGPGVVEAIGDADIVLLAPSNPVVSIGPILQIPGIRGALRSTSAPVIGYSPIIAGKPLRGMADECLKVIGVESTSQAVGEFFGARAGTGLLDGWLVHEGDHAQIEGVKVKAVPLLMTDPEATAAMVRAGLDLAGVSL",stoichiometry N,[3],2

# From PMC7253369, “Cellular and Structural Basis of Synthesis of the Unique Intermediate Dehydro-F420-0 in Mycobacteria” (mSystems, 2020)
